Measured values from patent US10716749B2, “Methods and compositions for treating a renal disease condition in a subject” (Palo Alto Investors, priority 2005, dated 2020).

Tests used:
[1] = system: Patients with a clinical diagnosis of hypertension; assay: Intrarenal administration of a renin inhibitor to treat hypertension; assay type: in vivo, human; conditions: weekly infusions via an intrarenal catheter; control: saline infusions; sphygmomanometer
Procedure: Patients are enrolled on the basis of a clinical diagnosis of hypertension based on serial systolic and diastolic blood pressure measurements by sphygmomanometer. Treatment subjects are treated by weekly infusions of Aliskiren via an intrarenal catheter.

[2] = system: Patients with anticipated use of radiocontrast prior to diagnostic coronary catherization; assay: Intrarenal administration of metoprolol to prevent contrast nephropathy; assay type: in vivo, human; conditions: intrarenal infusion 1 hour prior to the procedure; patients receiving radiocontrast
Procedure: Patients are prospectively enrolled on the basis of anticipated use of radiocontrast prior to a scheduled diagnostic coronary catherization. Treatment subjects are treated by intrarenal infusion of metoprolol 1 hour prior to the procedure.

| SMILES | diastolic blood pressure measurements compared to control [1] | systolic blood pressure measurements compared to control [1] | incidence of contrast nephropathy (as indicated by a greater than 25% increase in serum creatinine post-procedure) as compared to control [2] |
| --- | --- | --- | --- |
| COCCCOc1cc(C[C@@H](C[C@H](N)[C@@H](O)C[C@H](C(=O)NCC(C)(C)C(N)=O)C(C)C)C(C)C)ccc1OC [Aliskiren] | significant reduction | significant reduction | – |
| COCCc1ccc(OCC(O)CNC(C)C)cc1 (stereo not drawn) [metoprolol] | – | – | significant reduction |
